According to the supplement of paper PMC11208160:

Assay: recombinant barcode read abundance after kanamycin selection (control-corrected) (log10(CPM+1)); higher = more efficient recombination; sequences stand for … in AGTGCAGAGAAAATCGGCCAGTTTTCTCTGCCTGCAGTCCGCATGCCGT…AGATTTATGCAGCGGACTGCCTTTCTCCCAAAGTGATAAACCGGACAGTATCATGGACCGGTTTTCCCGGTAATCCGTATTTGCAAGGTTGGTTTCACT; site = the 11-nt target
Method: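 Pooled E. coli target-specificity screen for the IS621 bridge recombinase. Each library plasmid pairs an 11-nt target (CT core) with a bridge RNA whose target-binding loop (9-nt LTG + 4-nt RTG) is reprogrammed; the rest of the 177-nt WT IS621 bridge RNA scaffold is fixed. The plasmid is co-electroporated with a WT donor plasmid; recombinase is induced with 0.1 mM IPTG and recombinants are selected on kanamycin. Recombinant barcodes are sequenced, converted to CPM, averaged over two biological replicates and corrected by the unselected control CPM. Molecule = full bridge RNA written as DNA: LTG = specificity nt 1-9, RTG = reverse complement of specificity nt 8-11, in the WT scaffold.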
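Further: IS621 recombinase and bridge RNA in Escherichia coli cells.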

Sequence | recombinant barcode read abundance (log10)
ACAATGACTTGGGTTCTAACCTGTTGCCT (site ACAATGACTAG) | 0.904
ACAATGACTTGGGTTCTAACCTGTTGCCT (site ACAGTGACTAG) | 0.132
ACACCGCCTTGGGTTCTAACCTGTTGCCT (site ACACCGCCTAG) | 0.299
ACACCGCCTTGGGTTCTAACCTGTTGCCT (site CCACCGCCTAG) | 0.118
ACACCGCCTTGGGTTCTAACCTGTTGCCT (site GCACCGCCTAG) | 0.192
ACACCGCCTTGGGTTCTAACCTGTTGCCT (site TCACCGCCTAG) | 0.118
ACACGTGCTTGGGTTCTAACCTGTTGCGA (site ACACGTGCTTC) | 1.46
ACACGTGCTTGGGTTCTAACCTGTTGCGA (site CAGAAGTCTAA) | 0.215
ACACTAGCTTGGGTTCTAACCTGTTGCTG (site ACAATAGCTCA) | 0.313
ACACTAGCTTGGGTTCTAACCTGTTGCTG (site ACACTAGCTCA) | 1.19
ACACTAGCTTGGGTTCTAACCTGTTGCTG (site ACAGTAGCTCA) | 0.445
ACACTAGCTTGGGTTCTAACCTGTTGCTG (site ACATTAGCTCA) | 0.0774
ACAGAGACTTGGGTTCTAACCTGTTGCGC (site ACAAAGACTGC) | 0.372
ACAGAGACTTGGGTTCTAACCTGTTGCGC (site ACACAGACTGC) | 0.127
ACAGAGACTTGGGTTCTAACCTGTTGCGC (site ACAGAGACTGC) | 1.46
ACAGAGACTTGGGTTCTAACCTGTTGCGC (site ACATAGACTGC) | 0.221
ACAGCCTCTTGGGTTCTAACCTGTTGCCT (site ACAGCCTCTAG) | 2.84
ACAGCCTCTTGGGTTCTAACCTGTTGCCT (site ACAGGCTCTAG) | 0.156

Sequence | recombinant barcode read abundance (log10)
ACAGGCTCTTGGGTTCTAACCTGTTGCCT (site ACAGCCTCTAG) | 0.0406
ACAGGCTCTTGGGTTCTAACCTGTTGCCT (site ACAGGCTCTAG) | 1.82
ACAGGTACTTGGGTTCTAACCTGTTGCCT (site ACAGGTACTAG) | 1.18
ACAGGTACTTGGGTTCTAACCTGTTGCCT (site CCAGGTACTAG) | 0.428
ACAGGTACTTGGGTTCTAACCTGTTGCCT (site GCAGGTACTAG) | 0.0917
ACAGGTACTTGGGTTCTAACCTGTTGCCT (site TCAGGTACTAG) | 0.456
ACAGGTCCTTGGGTTCTAACCTGTTGCGA (site ACAGGTCCTTC) | 3.05
ACAGGTCCTTGGGTTCTAACCTGTTGCGA (site GTCATGTCTCA) | 0
ACAGTATCTTGGGTTCTAACCTGTTGCTG (site ACAGTATCTCA) | 0.479
ACAGTATCTTGGGTTCTAACCTGTTGCTG (site TGCAATACTAT) | 0
ACATAGTCTTGGGTTCTAACCTGTTGCCT (site ACATAGTCTAG) | 1.75
ACATAGTCTTGGGTTCTAACCTGTTGCCT (site AGATACTCTAG) | 0.0816
ACATATCCTTGGGTTCTAACCTGTTGCGT (site ACATATCCTAC) | 1.78
ACATATCCTTGGGTTCTAACCTGTTGCGT (site ACCTACCCTAC) | 0.0409
ACATGAACTTGGGTTCTAACCTGTTGCCT (site ACATGAACTAG) | 1.47
ACATGAACTTGGGTTCTAACCTGTTGCCT (site ACCTGAACTAG) | 0.0918
ACATGAACTTGGGTTCTAACCTGTTGCCT (site ACGTGAACTAG) | 0.0989
ACATGAACTTGGGTTCTAACCTGTTGCCT (site ACTTGAACTAG) | 0.101
